Where “and” joins values, the source holds several entries; their conditions need not be identical. Equal values may be shown once.
Tests used:
C57/B16J mice = assay: Dose-response experiments: cumulative food intake after intraperitoneal injection in fasted mice; conditions: food removed the day before
Description: Cumulative food intake±SEM was calculated and analyzed using Prizm. […] From the curve, the EC50 at each time point for each drug was determined.

POMC neurons [1] = assay: Electrophysiology: cell-attached recordings of action potential frequency of POMC-EGFP neurons in hypothalamic (ARC) slices; conditions: applied to the bath for 3 min
Description: Under ultraviolet (450-480 nm) excitation, POMC neurons were clearly distinguished from adjacent, non-fluorescent neurons visualized under infrared optics.
200 μm thick coronal slices were cut from the ARC of four-week old male POMC-EGFP mice. […] Recordings were made in Krebs at 35° C. Slices were visualized on an Axioskop FS2 plus (Zeiss) through standard infra red optics and using epifluorescence through a FITC (longpass) filter set. […] Cell-attached recordings were made from fluorescent neurons using an Axopatch 200B amplifier (Axon Instruments) and Clampex 8 (Axon Instruments). Action potentials frequencies were determined using an event detection program (Mini Analysis; Synaptosoft Inc., Decatur, Ga.). Drugs were applied to the bath for 3 min.
Data were analyzed by determining the average firing rate for 500 sec prior to drug addition, and analyzing treatments relative to this frequency (that is, firing rates were normalized to the pre-treatment frequency).

POMC neurons [2] = conditions: Heisler et al., Science 297(5581):609-11 (2002); cited from earlier work
[3] = in vivo; cited from earlier work

| Compound | Cumulative food intake expressed as a proportion of the food intake in saline treated animals, MEAN (C57/B16J mice; Hour 1 post-injection) | Cumulative food intake expressed as a proportion of the food intake in saline treated animals, MEAN (C57/B16J mice; Hour 2 post-injection) | Cumulative food intake expressed as a proportion of the food intake in saline treated animals, MEAN (C57/B16J mice; Hour 4 post-injection) | Cumulative food intake expressed as a proportion of the food intake in saline treated animals, MEAN (C57/B16J mice; Hour 8 post-injection) | Cumulative food intake expressed as a proportion of the food intake in saline treated animals, MEAN (C57/B16J mice; headed Hour 8 a second time) | Mean effect of the drug alone on firing rate, normalized to the pre-treatment frequency (POMC neurons [1]) | Effect of fenfluramine alone (POMC neurons [2]) | Physiological half life [3] |
| --- | --- | --- | --- | --- | --- | --- | --- | --- |
| Cc1c(C(=O)NN2CCCCC2)nn(-c2ccc(Cl)cc2Cl)c1-c1ccc(I)cc1 [AM 251, N-(piperidin-1-yl)-1-(2,4-dichlorophenyl)-5-(4-iodophenyl)-4-methyl-1H-pyrazole-3-carboxamide] | 0.97 | 0.85 | 0.88 | 0.90 | 0.99 | – | – | – |
| CC(NC(C)(C)C)C(=O)c1cccc(Cl)c1 (centres unmarked) [Bupropion, bupropion] | 0.32 | 0.64 | 0.97 | 0.96 | 0.99 | – | – | – |
| NCCc1ccc(O)c(O)c1 [Dopamine] | – | – | – | – | – | 11X (n = 9) | – | – |
| CCNC(C)Cc1cccc(C(F)(F)F)c1 (centres unmarked) [Fenfluramine, fenfluramine] | – | – | – | – | – | 2X increase (n = 6) | 200% | – |
| CNCCC(Oc1ccc(C(F)(F)F)cc1)c1ccccc1 (centres unmarked) [Fluoxetine, fluoxetine] | 0.36 | 0.57 | 0.68 | 0.76 | 1.05 | 3X (n = 1) | – | about 9 hours |
| COCCCC/C(=N\OCCN)c1ccc(C(F)(F)F)cc1 [Fluvoxamine, fluvoxamine] | 0.77 | 0.85 | 0.95 | 0.91 | 0.92 | – | – | – |
| C=C1CC[C@@]2(O)[C@H]3Cc4ccc(O)c5c4[C@@]2(CCN3CC2CC2)[C@H]1O5 [Nalmefene, nalmefene] | 0.0083 | 0.11 | 0.57 | 0.81 | 0.98 | – | – | – |
| O=C1CC[C@@]2(O)[C@H]3Cc4ccc(O)c5c4[C@@]2(CCN3CC2CC2)[C@H]1O5 [Naltrexone, naltrexone] | 0.41 and 0.30 | 0.77 and 0.56 | 0.99 and 0.83 | 1.1 and 0.98 | 0.98 and 1.01 | – | – | – |

— US7375111B2, “Compositions for affecting weight loss” (priority 2003, dated 2008)
